“And” between values parts separate entries of the source, which are not always exact repeats. Identical values can stand only once. Like-named read-outs stand apart in the source and are kept apart here.
Columns and labels:
KV7.2/3 channel = KV7.2/3 channel (Homo sapiens, UniProt O43525+O43526); assay: KV7.2/3 channel opening assay (thallium-sensitive fluorescence); assay type: cell-based; conditions: for KV7.2/3 channel opening activity (in words): inactive = no channel opening activity detected up to a concentration of 10 μM
Chain of KV7.2/3 channel (O43526 whole entry): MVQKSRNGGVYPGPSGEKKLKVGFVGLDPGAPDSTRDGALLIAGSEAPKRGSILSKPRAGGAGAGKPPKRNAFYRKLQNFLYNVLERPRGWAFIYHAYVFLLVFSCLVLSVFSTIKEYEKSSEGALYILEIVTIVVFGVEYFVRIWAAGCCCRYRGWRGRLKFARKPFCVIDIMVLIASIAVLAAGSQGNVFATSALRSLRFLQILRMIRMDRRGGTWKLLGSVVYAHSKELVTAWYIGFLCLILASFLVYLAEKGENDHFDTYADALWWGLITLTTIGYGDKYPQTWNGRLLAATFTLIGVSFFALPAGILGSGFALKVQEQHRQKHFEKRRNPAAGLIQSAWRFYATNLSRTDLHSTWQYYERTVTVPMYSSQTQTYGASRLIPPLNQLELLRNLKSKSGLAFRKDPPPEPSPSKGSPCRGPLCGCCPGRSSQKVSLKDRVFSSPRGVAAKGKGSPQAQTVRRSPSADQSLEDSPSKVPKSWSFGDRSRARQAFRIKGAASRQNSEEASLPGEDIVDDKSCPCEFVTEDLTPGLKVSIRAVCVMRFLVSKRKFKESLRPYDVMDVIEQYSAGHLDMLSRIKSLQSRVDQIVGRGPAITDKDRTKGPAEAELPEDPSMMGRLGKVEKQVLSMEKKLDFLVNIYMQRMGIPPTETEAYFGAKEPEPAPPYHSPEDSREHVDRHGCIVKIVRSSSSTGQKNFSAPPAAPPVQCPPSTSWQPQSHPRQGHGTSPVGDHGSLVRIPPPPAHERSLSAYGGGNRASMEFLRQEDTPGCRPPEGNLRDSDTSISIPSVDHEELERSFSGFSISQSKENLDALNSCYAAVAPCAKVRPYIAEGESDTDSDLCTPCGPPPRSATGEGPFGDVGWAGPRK
Chain of KV7.2/3 channel (O43525 whole entry): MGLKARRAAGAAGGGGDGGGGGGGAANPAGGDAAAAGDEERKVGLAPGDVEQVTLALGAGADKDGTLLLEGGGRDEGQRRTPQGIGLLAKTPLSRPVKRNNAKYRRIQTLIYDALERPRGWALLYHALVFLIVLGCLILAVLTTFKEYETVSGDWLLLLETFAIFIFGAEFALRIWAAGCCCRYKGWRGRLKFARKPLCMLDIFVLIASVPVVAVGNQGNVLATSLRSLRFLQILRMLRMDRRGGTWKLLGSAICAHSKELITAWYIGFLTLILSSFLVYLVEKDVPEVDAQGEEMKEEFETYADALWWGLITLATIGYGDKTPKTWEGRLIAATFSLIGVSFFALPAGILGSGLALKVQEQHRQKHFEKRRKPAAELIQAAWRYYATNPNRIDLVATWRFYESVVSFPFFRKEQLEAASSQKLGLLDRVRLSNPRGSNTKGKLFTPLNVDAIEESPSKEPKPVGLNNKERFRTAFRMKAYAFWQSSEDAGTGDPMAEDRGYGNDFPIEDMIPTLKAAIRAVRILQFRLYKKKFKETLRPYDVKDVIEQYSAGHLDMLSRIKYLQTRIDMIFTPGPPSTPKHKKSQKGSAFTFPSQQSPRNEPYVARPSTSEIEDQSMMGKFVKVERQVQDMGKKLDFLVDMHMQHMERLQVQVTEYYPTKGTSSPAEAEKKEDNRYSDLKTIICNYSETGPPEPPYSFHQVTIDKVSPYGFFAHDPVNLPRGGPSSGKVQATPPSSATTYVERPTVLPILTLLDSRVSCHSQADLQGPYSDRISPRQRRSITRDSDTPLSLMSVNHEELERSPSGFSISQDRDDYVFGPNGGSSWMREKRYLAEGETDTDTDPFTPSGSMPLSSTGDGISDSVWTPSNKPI
Procedure: To evaluate the biological activity, the synthesized analogues were tested on HEK293 cells overexpressing the KV7.2/3 channel. The measurement was carried out in a fluorescence-based assay in which a thallium-sensitive dye generated the fluorescence signal. Due to its similarity to potassium, thallium can also pass through KV7 channels. The intensity of the fluorescence signal correlates with the amount of intracellular thallium and thus with the ability of the compounds to open KV7 channels. To determine the potency, the fluorescence intensity was measured as a function of the compound concentration. The efficacy was determined relative to the maximum fluorescence signal induced by flupirtine. For a summary of the activity data, see Table 2.
The cell culture of the KV7.2/3 transfected HEK293 cells (HEK293 KCNQ2/3 cells from SB Drug Discovery, Glasgow, UK) used for the assay and the processing of the obtained data were performed as described in earlier work.[27],[29] Briefly, 60,000 cells/well were seeded into 96-well microtiter plates for fluorescence-based assays (4titude Vision Plate Black 96-Well microtiter plates from ThermoScientic) and incubated for 24 h. After incubation, the medium was changed to 200 μL/well loading buffer containing 5 mmol/L probenecid and incubated for 1 h at room temperature. Subsequently, the test compounds dissolved in DMSO were added to the wells to the desired concentrations and further incubated for 30 min. As a control, the loading buffer with a DMSO concentration corresponding to the substance samples (1% (V/V)) was used. Fluorescence measurements were performed on the Infinite F200 Pro plate reader (Tecan) set at […]/emission wavelengths of 485 and 535 nm, respectively. After measuring the background fluorescence (baseline) for 20 s, a stimulus buffer (25 mmol/L K^+, 15 mmol/L Tl^+) was added just before the fluorescence of each well was measured.
The calculations to obtain dose–response curves were performed in the same manner as in previous investigations.[27],[29] Briefly, the fluorescence intensity was normalized with the baseline signal (F/F0) at each time of signal acquisition. To obtain the corrected negative control, a value of 1 was subtracted from the normalized value of the negative control. Subsequently, the value of the corrected negative control was subtracted from the maximum (corr. F/F0) value of a compound in a defined concentration (corr. ΔF/F0) and then plotted against the logarithmic concentration. The EC50 value was calculated as relative values with GraphPad Prism 6 (La Jolla, CA, USA), that is, the inflection points of the sigmoidal curves. The Emax value, the maximum response, indicates the intrinsic activity of a compound. This value was determined relative to flupirtine (1), where the maximum corr. ΔF/F0 value of flupirtine (1) was defined as 100%. The EC50 and Emax value of a compound is the mean of at least three independent experiments ± standard deviation (SD).

TAMH cells = assay: MTT cell viability assay, TAMH cells; conditions: TAMH cells, MTT assay, 24 h exposure; for LD25: 25% reduction of viability; for LD50: 50% reduction of viability
Text: (§1) In addition to the activity, basic toxicological properties of the newly synthesized compounds were also investigated by using the 3-(4,5-dimethylthiazol-2-yl)-2,5-diphenyltetrazolium bromide (MTT) cell viability assay on mouse TAMH and human HEP-G2 hepatic cell lines (see Table 2). Both cell lines are established for the evaluation of hepatotoxicity.[42],[43]
(§2) The culturing of the mouse liver TAMH and human liver cancer HEP-G2 cell lines and the MTT assay used to evaluate cell viability were carried out as previously described elsewhere in detail.[27],[29] […] The medium in the wells was then replaced with the medium containing the compounds. Control wells contained an equivalent number of cells and 1% (v/v) DMSO. Wells without cells were used to determine the background optical density (OD) and were treated as the control wells. After 24 or 48 h of incubation with the compound, the respective medium was replaced with a fresh medium supplemented with 10% (v/v) of a 2.5 mg/mL solution of MTT. The plates were incubated for 4 h. Then, the culture medium was carefully aspirated off and 50 μL of DMSO was added to each well to dissolve the formazan crystals. The ODs of each well were measured at λ = 570 nm with a SpectraMax 190 microplate reader.
(§3) The calculated T/Ccorr. values were plotted against the log(concentration). The LD50 and LD25 values were determined by using GraphPad Prism 6. […] The values are given as the mean with SD of at least three independent experiments.

HEP-G2 cells = assay: MTT cell viability assay, HEP-G2 cells; conditions: HEP-G2 cells, MTT assay, 24 h exposure; for LD25: 25% reduction of viability; for LD50: 50% reduction of viability
Text: as §1, §2, §3

[1] = log D7.4 estimation by HPLC-based method; assay type: physicochemical; conditions: HPLC, Phenomenex Luna 5 μm Phenyl-Hexyl column
Procedure: The log D7.4 values were estimated using a common HPLC-based method in accordance with guideline OPPTS 830.7570 of the United States Environmental Protection Agency (EPA). The HPLC measurements were performed with a Phenomenex Luna 5 μm Phenyl-Hexyl 100 Å column (150 × 4.6 mm). […]. Uracil was used to measure the unretained peak time. To obtain a calibration function, the logarithm of the capacity factors for the reference substances was then plotted against the corresponding log P values taken from the mentioned guideline, which are equivalent to the log D7.4 values for non-ionizable compounds like the reference substances used for calibration. With this calibration function, it was possible to estimate the log D7.4 value from the corresponding retention time for each compound to be tested. For the measurement, 2 mg of the reference substances was each dissolved in 1 mL of methanol. A reference mixture was then obtained by combining 50 μL of each reference solution. The reference mixture was measured before and after the substances to be tested. The mean value from both measurements was used for the calibration line. The substances to be tested were injected as a solution in methanol (2 mg/mL), and the retention time was determined as the mean value from two measurements.

[2] = HEK293 cells overexpressing KV7.2/3, footnote e
[3] = pH 7.4, HPLC, calibration C, read-out: logD7.4
[4] = pH 7.4, HPLC, calibration D, read-out: logD7.4
[5] = pH 7.4, HPLC, mean of two calibrations, read-out: logD7.4 (mean)
[6] = pH 7.4, estimated by HPLC-based method, pH 7.4, read-out: log D7.4
[7] = pH 7.4, HPLC, calibration A1, read-out: logD7.4
[8] = pH 7.4, HPLC, calibration B1, read-out: logD7.4

Row | Compound | EC50 (KV7.2/3 channel; [2]) [µM] | KV7.2/3 channel opening activity (in words) (KV7.2/3 channel) | LD25 (TAMH cells) [µM] | LD50 (TAMH cells) [µM] | LD25 (HEP-G2 cells) [µM] | LD50 (HEP-G2 cells) [µM] | chromatographic logD [1, 3] | chromatographic logD [1, 4] | chromatographic logD [1, 5] | chromatographic logD [1, 6] | loss of potency (factor) (KV7.2/3 channel; 36a compared with 36b) | EC50 (KV7.2/3 channel; HEK293 cells overexpressing KV7.2/3, concentration for half-maximal channel opening, mean ± SD, ≥3 determinations) [µM] | efficacy (KV7.2/3 channel; HEK293 cells overexpressing KV7.2/3, relative to maximum signal of flupirtine (=100%)) | chromatographic logD [1, 7] | chromatographic logD [1, 8]
1 | COc1cc(NCc2ccc(F)cc2)ccc1C(=O)NCC(C)C [28a, 4-[(4-Fluorobenzyl)amino]-N-isobutyl-2-methoxybenzamide] | > 10 | inactive | 43 ± 27 | >63 | 31 ± 13 | 42 ± 7 | 3.79 | 3.79 | 3.8 | 3.8 | – | – | – | – | –
2 | COc1cc(NCc2ccc(F)cc2)ccc1C(=O)NCc1ccc(F)cc1 [28b, N-(4-Fluorobenzyl)-4-[(4-fluorobenzyl)amino]-2-methoxybenzamide] | > 10 | inactive | >8 | >8 | >8 | >8 | 4.28 | 4.29 | 4.3 | 4.3 | – | – | – | – | –
3 | CCCCNC(=O)c1c(C)cc(NCc2ccc(F)cc2)nc1OC [36a, N-Butyl-6-[(4-fluorobenzyl)amino]-2-methoxy-4-methylnicotinamide] | – | – | 17 ± 1 | >63 | 24 ± 1 | >63 | – | – | 3.7 | 3.7 | 11 | 3.51 ± 0.724 | 65% and 65 ± 9% | 3.7 | 3.66
4 | Cc1cc(N2CCOCC2)nc(N2CCOCC2)c1CNC(=O)c1ccc(F)cc1 [55a, 4-Fluoro-N-[(4-methyl-2,6-dimorpholinopyridin-3-yl)methyl]benzamide] | > 10 | inactive | 22 ± 7 | >31 | 22 ± 6 | >31 | – | – | 3.5 | 3.5 | – | – | – | 3.45 | 3.46
5 | Cc1cc(N2CCOCC2)nc(N2CCOCC2)c1CNC(=O)Cc1cc(F)cc(F)c1 [55b, 2-(3,5-Difluorophenyl)-N-[(4-methyl-2,6-dimorpholinopyridin-3-yl)methyl]acetamide] | > 10 | inactive | 24 ± 5 | >250 | 20 ± 7 | >250 | – | – | 3.5 | 3.5 | – | – | – | 3.52 | 3.53
